These are literature values, as cited in patent US3931141A, “Novel heptapeptides having gastrin activity” (Hoechst Aktiengesellschaft, priority 1972, dated 1976).

This series deals with stomach. The note with it: The Lancet 1966, page 933.

As to “Boc--β--Ala--Trp--Met--Asp--Phe--NH2 [formula IV]”, the “stimulating action (acid production and quantity secreted) compared with other synthetic peptides” value is recorded as “strongest stimulating action”.
